Biological target: T1, Dimer of Gag-Pol polyprotein [501-599,Q508K,L534I,L564I,C568A,C596A] (Human immunodeficiency virus 1, UniProt P03367, C568A/C596A/L534I/L564I/Q508K)
T1 construct: 501-599
Test: Protease Inhibition Assay
Conditions: pH 6.4; 25 °C
Description: The Ki values were determined using fluorogenic substrate, 2-(aminobenzoyl)-Thr-Ile-Nle-Phe(p-NO2)-Gln-ArgNH2. A standard curve relating changes in fluorescent intensity to changes in concentration of product was used to convert fluorescent changes into molar velocities. The amount of cleavage was determined by HPLC.

Row | SMILES | Ki [µM]
1 | C=CCC1(N(CC(C)C)C[C@@H](O)[C@H](Cc2ccccc2)NC(=O)O[C@H]2CO[C@H]3OCC[C@H]32)C(=O)Nc2ccccc21 (stereo partly drawn) [(3R,3aS,6aR)-hexahydrofuro[2,3-b]furan-3-yl N-[(2S,3R)-3-hydroxy-4-[(2-methylpropyl)[2-oxo-3-(prop-2-en-1-yl)-2,3-dihydro-1H-indol-3-yl]amino]-1-phenylbutan-2-yl]carbamate] | 0.0045
2 | CC(C)CN(C[C@@H](O)[C@H](Cc1ccccc1)NC(=O)O[C@H]1CO[C@H]2OCC[C@H]21)C1(C)C(=O)Nc2ccccc21 (stereo partly drawn) [(3R,3aS,6aR)-hexahydrofuro[2,3-b]furan-3-yl N-[(2S,3R)-3-hydroxy-4-[(3-methyl-2-oxo-2,3-dihydro-1H-indol-3-yl)(2-methylpropyl)amino]-1-phenylbutan-2-yl]carbamate] | 0.0045
3 | COc1ccc2c(c1)C(C)(N(CC(C)C)C[C@@H](O)[C@H](Cc1ccccc1)NC(=O)O[C@H]1CO[C@H]3OCC[C@H]31)C(=O)N2 (stereo partly drawn) [(3R,3aS,6aR)-hexahydrofuro[2,3-b]furan-3-yl N-[(2S,3R)-3-hydroxy-4-[(5-methoxy-3-methyl-2-oxo-2,3-dihydro-1H-indol-3-yl)(2-methylpropyl)amino]-1-phenylbutan-2-yl]carbamate] | 0.116
4 | CC(C)CN(C[C@@H](O)[C@H](Cc1ccccc1)NC(=O)O[C@H]1CO[C@H]2OCC[C@H]21)C1(C)C(=O)N(C)c2ccccc21 (stereo partly drawn) [(3R,3aS,6aR)-hexahydrofuro[2,3-b]furan-3-yl N-[(2S,3R)-4-[(1,3-dimethyl-2-oxo-2,3-dihydro-1H-indol-3-yl)(2-methylpropyl)amino]-3-hydroxy-1-phenylbutan-2-yl]carbamate] | 0.051
5 | O=C(N[C@@H](Cc1ccccc1)[C@H](O)CN1CC=CCCC12C(=O)Nc1ccccc12)O[C@H]1CO[C@H]2OCC[C@H]21 (stereo partly drawn) [(3R,3aS,6aR)-hexahydrofuro[2,3-b]furan-3-yl N-[(2S,3R)-4-{1',2',1,3,4,7-hexahydrospiro[azepine-2,3'-indole]-2'-one}-3-hydroxy-1-phenylbutan-2-yl]carbamate] | > 1
6 | O=C(N[C@@H](Cc1ccccc1)[C@H](O)CN1CCCCCC12C(=O)Nc1ccccc12)O[C@H]1CO[C@H]2OCC[C@H]21 (stereo partly drawn) [(3R,3aS,6aR)-hexahydrofuro[2,3-b]furan-3-yl N-[(2S,3R)-4-{1',2'-dihydrospiro[azepane-2,3'-indole]-2'-one}-3-hydroxy-1-phenylbutan-2-yl]carbamate] | > 1
7 | O=C(N[C@@H](Cc1ccccc1)[C@H](O)CN1CCCCC12C(=O)Nc1ccccc12)O[C@H]1CO[C@H]2OCC[C@H]21 (stereo partly drawn) [(3R,3aS,6aR)-hexahydrofuro[2,3-b]furan-3-yl N-[(2S,3R)-4-{1,2-dihydrospiro[indole-3,2'-piperidine]-2-one}-3-hydroxy-1-phenylbutan-2-yl]carbamate] | > 1

From BindingDB's records for doi:10.1016/j.bmcl.2006.01.011 (Purdue University, 2006)
